Laboratory results as given in ChEMBL document CHEMBL1143165, “N-[omega-[4-(2-methoxyphenyl)-1-piperazinyl]alkyl]-2-quinolinamines as high-affinity fluorescent 5-HT1A receptor ligands” (J Med Chem, 2008).
The source made the active and inactive calls. The calls are words filed in the database; no cut-off is given here.

Tests used:
[1] = target: T1, 5-hydroxytryptamine receptor 1A (Homo sapiens, UniProt P08908); assay: Displacement of [3H]8-OH-DPAT from human 5HT1A receptor expressed in HEK293 cells after 120 mins; type: cell-based
T1 sequence (P08908 whole entry): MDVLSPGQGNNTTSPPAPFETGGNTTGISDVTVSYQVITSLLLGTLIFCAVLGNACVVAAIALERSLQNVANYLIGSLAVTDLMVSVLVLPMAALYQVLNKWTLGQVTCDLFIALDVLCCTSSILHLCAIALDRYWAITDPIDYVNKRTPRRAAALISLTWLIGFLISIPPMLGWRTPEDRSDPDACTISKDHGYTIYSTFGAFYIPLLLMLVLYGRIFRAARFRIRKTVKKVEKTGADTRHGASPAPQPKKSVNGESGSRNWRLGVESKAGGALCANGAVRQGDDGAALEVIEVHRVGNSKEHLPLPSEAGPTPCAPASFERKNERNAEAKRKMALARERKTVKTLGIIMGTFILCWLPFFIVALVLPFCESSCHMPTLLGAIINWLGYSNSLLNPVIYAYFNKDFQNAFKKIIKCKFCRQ

Cavia porcellus = species on record: Cavia porcellus; assay: Reversal of agonist activity at 5HT1A receptor in guinea pig in presence of 5HT1A antagonist WAY-100635; type: functional
[2] = Agonist activity at 5HT1A receptor in guinea pig ileum assessed as inhibition of electrically-stimulated muscle contraction; type: functional, tissue-based; conditions: Cavia porcellus
[3] = Agonist activity at 5HT1A receptor in guinea pig ileum assessed as inhibition of electrically-stimulated muscle contraction relative to baseline; type: functional, Cavia porcellus; design: scale not given: the % may be the effect or the level left

Row | Ki [1] | SMILES | also measured
1 | 4.6 nM | COc1ccc2ccc(NCCCCN3CCN(c4ccccc4OC)CC3)nc2c1 | –
2 | 0.03 nM | COc1ccccc1N1CCN(CCCCCNc2ccc3ccccc3n2)CC1 | –
3 | 33 nM | COc1ccccc1N1CCN(CCNc2ccc3ccccc3n2)CC1 | –
4 | 22 nM | COc1ccc2nc(NCCCN3CCN(c4ccccc4OC)CC3)ccc2c1 | –
5 | 0.2 nM | COc1ccc2nc(NCCCCN3CCN(c4ccccc4OC)CC3)ccc2c1 | Activity (Cavia porcellus): Active; EC50 [2]: 34.4 µM
6 | 2.6 nM | COc1ccc2nc(NCCCCCN3CCN(c4ccccc4OC)CC3)ccc2c1 | –
7 | 2.1 nM | COc1ccc2ccc(NCCN3CCN(c4ccccc4OC)CC3)nc2c1 | –
8 | 14.2 nM | COc1ccccc1N1CCN(CCNc2ccc3cc([N+](=O)[O-])ccc3n2)CC1 | –
9 | 13 nM | COc1ccccc1N1CCN(CCCNc2ccc3ccccc3n2)CC1 | –
10 | 0.5 nM | COc1ccc2ccc(NCCCCCN3CCN(c4ccccc4OC)CC3)nc2c1 | –
11 | 0.2 nM | COc1ccc2ccc(NCCCN3CCN(c4ccccc4OC)CC3)nc2c1 | –
12 | 28 nM | COc1ccc2nc(NCCN3CCN(c4ccccc4OC)CC3)ccc2c1 | –
13 | 9.7 nM | COc1ccccc1N1CCN(CCCCNc2ccc3ccccc3n2)CC1 | –
14 | 0.38 nM | COc1ccccc1N1CCN(CCCCNc2ccc3cc(N)ccc3n2)CC1 | EC50 [2]: 62.1 µM; Activity [3]: 81%
15 | 0.54 nM | COc1ccccc1N1CCN(CCCCNc2ccc3cc(C)ccc3n2)CC1 | –
